Structures are written as SMILES.

This note sets out measurements from patent US4604355A, “Maltogenic amylase enzyme, preparation and use thereof” (Novo Industri A/S, priority 1983, dated 1986).

The experiment has as its target T1, C599 maltogenic amylase from Bacillus strain C599 NCIB 11837 (Geobacillus stearothermophilus, UniProt P19531).
T1 construct: The enzyme is excreted into the medium; made in house; host or cells: Bacillus strain C599 (NCIB 11837), the natural producer; no recombinant host
T1 sequence (P19531 34-719): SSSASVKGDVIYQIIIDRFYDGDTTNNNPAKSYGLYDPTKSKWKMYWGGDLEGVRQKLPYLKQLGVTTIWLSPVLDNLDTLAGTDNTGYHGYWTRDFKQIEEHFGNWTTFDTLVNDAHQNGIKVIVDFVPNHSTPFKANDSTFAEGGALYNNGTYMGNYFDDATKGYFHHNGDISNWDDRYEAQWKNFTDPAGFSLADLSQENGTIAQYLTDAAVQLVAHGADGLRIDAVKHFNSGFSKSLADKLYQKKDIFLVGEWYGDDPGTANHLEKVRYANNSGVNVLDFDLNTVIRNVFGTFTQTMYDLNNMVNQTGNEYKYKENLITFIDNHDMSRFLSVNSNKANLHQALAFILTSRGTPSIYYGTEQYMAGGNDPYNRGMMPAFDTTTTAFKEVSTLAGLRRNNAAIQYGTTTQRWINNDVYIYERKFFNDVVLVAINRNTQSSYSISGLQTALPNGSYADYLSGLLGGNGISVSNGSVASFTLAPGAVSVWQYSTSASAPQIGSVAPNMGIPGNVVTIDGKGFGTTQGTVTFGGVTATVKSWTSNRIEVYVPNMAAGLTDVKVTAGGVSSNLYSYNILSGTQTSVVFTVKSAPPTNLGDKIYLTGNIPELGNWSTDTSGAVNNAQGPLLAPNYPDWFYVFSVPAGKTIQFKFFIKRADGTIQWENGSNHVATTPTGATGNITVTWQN
Briefly: Inhibition of C599-amylase (residual activity after incubation with inhibitors). It is filed as biochemical. The note with it: None = 100. How it is done: One maltogenic amylase unit (U) is defined as the amount of enzyme which under standard conditions (temperature 60° C., pH 5.5, and reaction time 30 minutes) produces reducing sugar corresponding to 1 μmol maltose per minute.
A 0.5% soluble starch (supplied by Merck) in 0.1M acetate buffer or 0.05M phosphate buffer (pH 5) is incubated with 1 ml of the enzyme dissolved in deionized water containing 0.1-0.2 U per ml. The reaction is stopped after 30 minutes by addition of 4 ml 0.5N NaOH.
The content of reducing sugar is then determined by means of the Somogyi method (Somogyi: J.Biol.Chem., 153, p. 375-80 (1944).

On to `O=C(O)c1cc[c]([Hg][Cl])cc1` [PCMB, parachloromecuribenzoate], for which, under “inhibitor 1 mM”, the “Residual activity after 60 min. at room temperature, %” value (“Residual activity … %” below) is listed as 92%. As for `OC[C@H]1O[C@@H]2O[C@H]3[C@H](O)[C@@H](O)[C@@H](O[C@H]4[C@H](O)[C@@H](O)[C@@H](O[C@H]5[C@H](O)[C@@H](O)[C@@H](O[C@H]6[C@H](O)[C@@H](O)[C@@H](O[C@H]7[C@H](O)[C@@H](O)[C@@H](O[C@H]1[C@H](O)[C@H]2O)O[C@@H]7CO)O[C@@H]6CO)O[C@@H]5CO)O[C@@H]4CO)O[C@@H]3CO` [Schardinger-α-cyclodextrin], under “inhibitor 1%”, the “Residual activity … %” value turned out to be 109%.

For the molecule `OC[C@H]1O[C@@H]2O[C@H]3[C@H](O)[C@@H](O)[C@@H](O[C@H]4[C@H](O)[C@@H](O)[C@@H](O[C@H]5[C@H](O)[C@@H](O)[C@@H](O[C@H]6[C@H](O)[C@@H](O)[C@@H](O[C@H]7[C@H](O)[C@@H](O)[C@@H](O[C@H]8[C@H](O)[C@@H](O)[C@@H](O[C@H]1[C@H](O)[C@H]2O)O[C@@H]8CO)O[C@@H]7CO)O[C@@H]6CO)O[C@@H]5CO)O[C@@H]4CO)O[C@@H]3CO` [Schardinger-β-cyclodextrin], the “Residual activity … %” value (inhibitor 1%) is reported as 107%.
